In US20220323406A1, “METHODS AND COMPOSITIONS FOR DIFFERENTIATING STEM CELLS” (Massachusetts Institute of Technology, priority 2019, published 2022):

Tests used:
Conditions in all cases: primary screen
ENR+CD organoids = experiment: Primary screen: ATP (CellTiter-Glo 3D, CTG) cell number/viability, 2.5-D 384-well ENR+CD organoids;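 also: compounds given at plating and again on day 3 over a 6-day differentiation from ENR+CV stem-cell-enriched precursors, ATP measured on day 6, plate median as control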
[1] = system: ENR+CD organoids (ISC to Paneth cell differentiation); experiment: Primary screen: CCh-stimulated lysozyme secretion LYZ.S, 2.5-D 384-well ENR+CD organoid differentiation; format: cell-based, mouse
Description: (§1) High-throughput screening.

[2] = system: ENR+CD organoids (ISC to Paneth cell differentiation); experiment: Primary screen: basal (non-stimulated) lysozyme secretion LYZ.NS, 2.5-D 384-well ENR+CD organoid differentiation; format: cell-based, mouse
Description: as §1

Row | Structure (SMILES) | Dose.FC.CTG (ENR+CD organoids; dose 0.08 uM) [log2 fold change] | Dose.FC.CTG (ENR+CD organoids; dose 0.40 uM) [log2 fold change] | Dose.FC.CTG (ENR+CD organoids; dose 2.00 uM) [log2 fold change] | Dose.FC.CTG (ENR+CD organoids; dose 10.00 uM) [log2 fold change] | Dose.FC.LYZ.S ([1]; dose 0.08 uM) [log2 fold change] | Dose.FC.LYZ.S ([1]; dose 0.40 uM) [log2 fold change] | Dose.FC.LYZ.S ([1]; dose 2.00 uM) [log2 fold change] | Dose.FC.LYZ.S ([1]; dose 10.00 uM) [log2 fold change] | Dose.FC.LYZ.NS ([2]; dose 0.08 uM) [log2 fold change] | Z.LYZ.NS (standard z score) ([2]; dose 0.08 uM) | Dose.FC.LYZ.NS ([2]; dose 0.40 uM) [log2 fold change] | Z.LYZ.NS (standard z score) ([2]; dose 0.40 uM) | Dose.FC.LYZ.NS ([2]; dose 2.00 uM) [log2 fold change] | Z.LYZ.NS (standard z score) ([2]; dose 2.00 uM) | Dose.FC.LYZ.NS ([2]; dose 10.00 uM) [log2 fold change] | Z.LYZ.NS (standard z score) ([2]; dose 10.00 uM) | Z.CTG (standard z score) (ENR+CD organoids; dose 0.08 uM) | Z.CTG (standard z score) (ENR+CD organoids; dose 0.40 uM) | Z.CTG (standard z score) (ENR+CD organoids; dose 2.00 uM) | Z.CTG (standard z score) (ENR+CD organoids; dose 10.00 uM)
1 | NC(=O)c1ncn([C@@H]2O[C@H](CO)[C@@H](O)[C@H]2O)c1N [Acadesine] | 0.094 | 0.173 | −0.005 | 0.076 | 0.004 | −0.012 | 0.053 | −0.102 | 0.023 | 0.198 | −0.016 | −0.137 | 0.016 | 0.140 | −0.070 | −0.607 |  |  |  | 
2 | COc1ccc2cccc(CCNC(C)=O)c2c1 [Agomelatine] | 0.106 | 0.081 | −0.198 | 0.024 | 0.090 | 0.132 | −0.037 | 0.008 | 0.026 | 0.227 | 0.080 | 0.695 | 0.069 | 0.597 | −0.033 | −0.285 |  |  |  | 
3 | Oc1ncnc2[nH]ncc12 [Allopurinol] | 0.212 | −0.098 | −0.162 | −0.454 | 0.026 | −0.086 | −0.064 | −0.119 | 0.019 | 0.168 | −0.036 | −0.314 | −0.004 | −0.036 | −0.051 | −0.442 |  |  |  | 
4 | CCOC(=O)[C@H]1O[C@@H]1C(=O)N[C@@H](CC(C)C)C(=O)NCCC(C)C [Aloxistatin] | −0.006 | −0.006 | −0.129 | −0.214 | 0.025 | −0.016 | −0.091 | −0.181 | 0.020 | 0.171 | −0.029 | −0.250 | −0.037 | −0.324 | −0.142 | −1.236 |  |  |  | 
5 | CCOC(=O)C1=C(COCCN)NC(C)=C(C(=O)OC)C1c1ccccc1Cl (stereo not shown) [Amlodipine] | −0.351 | −0.363 | −0.372 | −0.421 | −0.042 | −0.015 | −0.122 | −0.155 | 0.026 | 0.228 | 0.024 | 0.210 | −0.065 | −0.568 | −0.135 | −1.172 |  |  |  | 
6 | COc1cc(F)c(C(C)C)cc1-c1ccc(C(F)(F)F)cc1CN1C(=O)O[C@H](c2cc(C(F)(F)F)cc(C(F)(F)F)c2)[C@@H]1C [Anacetrapib (MK-0859)] | −0.090 | 0.035 | −0.094 | 0.031 | 0.051 | −0.002 | −0.046 | −0.036 | 0.013 | 0.112 | 0.007 | 0.060 | −0.015 | −0.129 | −0.036 | −0.314 | −0.214 | 0.084 | −0.225 | 0.075
7 | CC(C)(C#N)c1cc(Cn2cncn2)cc(C(C)(C)C#N)c1 [Anastrozole] | −0.117 | 0.024 | −0.058 | −0.499 | 0.045 | 0.100 | −0.008 | −0.081 | 0.035 | 0.305 | 0.106 | 0.924 | −0.003 | −0.026 | −0.067 | −0.580 |  |  |  | 
8 | COc1ccc(C(=O)N2CCCC2=O)cc1 [Aniracetam] | −0.088 | 0.112 | 0.054 | 0.019 | 0.043 | 0.148 | 0.005 | −0.028 | 0.089 | 0.774 | 0.056 | 0.486 | 0.032 | 0.277 | 0.012 | 0.105 |  |  |  | 
9 | N#CC1(c2ccc(NC(=O)c3cccnc3NCc3ccncc3)cc2)CCCC1 [Apatinib] | 0.223 | 0.302 | 0.270 | 0.218 | 0.173 | 0.142 | 0.112 | 0.075 | 0.103 | 0.897 | 0.038 | 0.327 | 0.076 | 0.660 | 0.012 | 0.101 |  |  |  | 
